Results published in patent publication US12629352B2, “Methods and uses for apelin receptor agonists” (RESEARCH TRIANGLE INSTITUTE, priority 2019, dated 2026).

System: bleomycin-induced pulmonary fibrosis in male C57BL/6 mice
Assay: 21-day bleomycin-induced lung fibrosis model, prophylactic BID oral treatment
Format: in vivo
Details: for Ashcroft score index: FIG. 15A, BID treatment; for absolute lung weights / absolute lung weights vs vehicle: day 21 post-bleomycin; for absolute lung weights: ±SEM, significantly lower than vehicle (p<0.05)
Experimental: Bleomycin is widely used to induce pulmonary fibrosis in rodents in order to study potential novel therapies for fibrosis. This study was designed to evaluate the prophylactic efficacy of test compound, Compound 1, also referred to as SRRM-423, in a 21-day model of bleomycin-induced pulmonary fibrosis in male C57BL/6 mice.
Prophylactic treatment of three different doses of 30 mg/kg, 15 mg/kg, and 7.5 mg/kg of Compound 1 was commenced a day before induction of disease and continued until the end of the study, namely 21 days after bleomycin administration. Treatment was administered twice daily via oral gavage.
Mice were administered bleomycin (Catalog number C-61703-323-22, lot number D011495AA, Hospira) via oropharyngeal route to induce lung fibrosis.
Bleomycin-induced animals were treated twice daily with either of the three different doses of test compound Compound 1 or pirfenidone starting from a day prior to disease induction and continued till study termination. Study animals were harvested on day 21 post-bleomycin administration. As an end point analysis, fibrosis symptoms such as body weight, absolute lung weight, lung weight normalized to body weight, and total leukocytes in BAL fluid were evaluated and compared with vehicle-treated mice.
On day 0, all mice in groups 2-6 received a 1.5 U/kg oropharyngeal administration of bleomycin to induce pulmonary fibrosis. Animals in group 1 were not administered bleomycin, but instead received a single dose of normal saline via the oropharyngeal route, and were considered sham control mice.
Dosing was initiated one day prior to induction of disease. Animals were dosed twice daily orally with Compound 1 and Pirfenidone and treatment was continued until 21 days after bleomycin administration. Animals from group 2 were treated with vehicle (0.5% methylcellulose). Animals in groups 3, 4 and 5 received Compound 1 at 30, 15, and 7.5 mg/kg respectively, and animals in group 6 received Pirfenidone 100 mg/kg.
Surviving animals were euthanized 21 days post bleomycin administration. Animals were weighed, then blood and lungs were collected. Blood was processed for plasma. Lungs, were weighed, flushed with HBSS for BAL collection, and fixed in 10% NBF. Supernatant from BAL fluid was frozen while the pellet was used for total leukocyte cell count.
In order to induce pulmonary fibrosis, mice in groups 2-6 were administered 1.5 U/kg bleomycin (Catalog number C-61703-323-22, lot number D011495AA, Hospira) in 70 μl via oropharyngeal administration. Animals from group 1 were administered 70 μl of saline by the oropharyngeal route, instead of bleomycin, and served as sham controls.
Compound 1 was provided as a trifluoroacetic acid (TFA) salt and requires a salt correction of 1.0654. All dose amounts were calculated as the free base content of the test article using the correction factor. Vehicle used for formulation of test compound, Compound 1, was 0.3% Tween 80 and 1% N-methylpyrollidinone in 0.5% aqueous methylcellulose. Vehicle and dosing formulation of Compound 1 was prepared fresh weekly. Dosing formulations and vehicles were stored at 4±2° C. protected from heat and light. The expiration date for the test article dosing solutions were set at 7 days after preparation. Pirfenidone was sourced from a vendor and formulated in the same vehicle as Compound 1, i.e., 0.3% Tween 80 and 1% N-methylpyrollidinone in 0.5% aqueous methylcellulose.
Animals were dosed twice daily with volume of 100 μl/dose by oral gavage from a day prior to disease induction and same treatment was continued till study termination, i.e., day 21 post bleomycin administration. Surviving animals were harvested within 2 to 4 hours post final dosing on day 21.
The lungs from each animal were harvested following Aragen's Standard Operating Procedure (WA-004-01). Each lung was dissected from the animal and weighed. The BAL fluid was collected by lavaging the lung twice with 0.5 ml Hanks Balanced Salt Solution (HBSS, VWR Radnor, PA). […]

[1] = lung histopathology, dose not specified

| SMILES | fibrosis according to Ashcroft scores (30 mg/kg BID, compared to induced controls and to 100 mg/kg Pirfenidone) | fibrosis according to Ashcroft scores (15 or 7.5 mg/kg BID, compared to induced controls, similar to 100 mg/kg Pirfenidone BID) | average total leukocyte count in BAL fluid (30, 15 and 7.5 mg/kg BID, day 21, vs vehicle group 2, statistical significance not reached) | α-SMA positive lung tissue as a percent of the total lung parenchyma (>7.5 mg/kg, FIG. 15B, compared to induced controls, no clear relationship to the dose) | Ashcroft score index [1] | Ashcroft score of lung section (Masson's trichome staining) (FIG. 16, 30 mg mpk + bleomycin, bleomycin/no treatment similar to score 5) | α-SMA positive staining of lung section (FIG. 17, 30 mpk + bleomycin, compared to induced controls) | absolute lung weights (group 3, 30 mg/kg BID oral gavage) [mg] | absolute lung weights vs vehicle (group 4, 15 mg/kg BID oral gavage) | body weight (group 4, 15 mg/kg BID, recorded three times a week to day 21) | absolute lung weights (group 5, 7.5 mg/kg BID oral gavage) [mg] | fibrosis symptoms (body weight, lung weight, lung weight index, total leukocyte counts, myofibroblast proliferation) (highest dose of 30 mg/kg BID) | proliferation of activated myofibroblasts (antibody to α-SMA) [1] | absolute and normalized lung weights (prophylactic BID treatment, doses not distinguished) | absolute lung weights vs vehicle (group 6, 100 mg/kg BID oral gavage) |
| --- | --- | --- | --- | --- | --- | --- | --- | --- | --- | --- | --- | --- | --- | --- | --- |
| O=C(O)C[C@H](CCN1CCCC(F)(F)C1)NC(=O)c1cc(-c2ccccc2C(F)(F)F)n(C2CCCC2)n1 [Compound 1, (3S)-3-({1-cyclopentyl-5-[2-(trifluoromethyl)phenyl]-1H-pyrazol-3-yl}formamido)-5-(3,3-difluoropiperidin-1-yl)pentanoic acid] | greatest reduction in fibrosis | substantially less fibrosis | reduced the average leukocyte count in BAL fluid in all test groups | substantially less α-SMA positive lung tissue | reduced Ashcroft score index | ~2 | substantially less compared to induced controls | 310 | Statistical significance was not reached | lost more weight compared to other groups | 313 | significantly ameliorated fibrosis symptoms | reduced proliferation of activated myofibroblasts | reduced absolute and normalized lung weights |  |
| Cc1ccc(=O)n(-c2ccccc2)c1 [Pirfenidone, reference compound] |  |  |  |  | reduced Ashcroft score index |  |  |  |  |  |  |  |  |  | Statistical significance was not reached |
